From patent US9782420B2, “Method for treating eye diseases” (Kyoto University, priority 2013, dated 2017)

Key:
[1] = tested on: CCR2 (monocyte chemoattractant protein 1 (MCP-1) receptor) deficient mice; test: Experiment 1: Removal of drusen in aged mice; format: in vivo
Method: Experiment 1: Removal of Drusen in Aged Mice
The effect of the compound of number 32 (Compound 32) to remove previously formed drusen in relatively aged mice was tested. CCR2 (monocyte chemoattractant protein 1 (MCP-1) receptor) deficient mice were used. The mice in the group of Compound 32 (n=30 eyes) were orally administered with 50 mg/kg/day of Compound 32 dissolved in saline five days week from the age of nine months. The mice in the control group (n=48 eyes) were orally administered with the saline. The mice in the both groups were allowed to freely drink water. At the age of 6, 9, 10, 11, 12, 13, 14, and 15 months, the mice were examined by fundus photographs, optical coherence tomography (OCT) (Multiline OCT, Heidelberg Engineering) and electroretinogram (ERG).

[2] = tested on: CCR2 deficient mice; test: Experiment 2: Suppression of formation of drusen in young mice; format: in vivo
Method: Experiment 2: Suppression of Formation of Drusen in Young Mice
The effect of the compound of number 32 (Compound 32) to suppress the formation of the drusen in young mice was tested. CCR2 deficient mice were used. The mice were allowed to freely drink water containing 0.385 mg/ml of Compound 32 from the age of two months. The mice in the control group were allowed to freely drink water not containing Compound 32. At the age of 2, 3.5, 6, and 9 months, the mice were examined by fundus photographs, OCT, and ERG.

## Cc1cc(F)ccc1-c1ccc(/N=N/c2cc(S(=O)(=O)[O-])c3ccccc3c2N)cn1.[Na+] [Compound 32, 4-amino-3-[6-(4-fluoro-2-methylphenyl)pyridine-3-ylazo]naphthalene-1-sulfonic acid sodium salt]
[1]; aged CCR2 deficient mice, oral 50 mg/kg/day from age of nine months, age 6 to 15 months, vs saline control
  numbers of the drusen found in the fundus photographs (FIG. 5): the drusen were gradually increased in the control group but not in the mice administered with Compound 32
[1]; aged CCR2 deficient mice, oral 50 mg/kg/day in saline five days a week from age of nine months, photographs at age 9 and 15 months
  drusen in fundus photographs (FIGS. 2 to 4): the drusen disappeared in the area bounded by the line
[1]; mice 1 to 4 administered with Compound 32, oral 50 mg/kg/day from age of nine months
  time-dependent change of the numbers of the drusen in individual mice (FIG. 6): gradually decreased after the administration
[1]; mice at the age of 15 months, oral 50 mg/kg/day from age of nine months, vs control, p=<0.05
  b-wave amplitudes in the electroretinogram (FIG. 7): retinal function is better in the mice administered with Compound 32 than in the control mice
[2]; mice at the age of 9 months, drinking water 0.385 mg/ml from age of two months, vs control, p=<0.001
  a-wave amplitudes in the electroretinogram (FIG. 14): function of photoreceptor cells is better in the mice administered with Compound 32 than in the control mice
[2]; mice at the age of 9 months, drinking water 0.385 mg/ml from age of two months, vs control, p=<0.05
  b-wave amplitudes in the electroretinogram (FIG. 13): retinal function is better in the mice administered with Compound 32 than in the control mice
[2]; young CCR2 deficient mice, drinking water 0.385 mg/ml from age of two months, age 2, 3.5, 6 and 9 months, vs control, p=<0.05
  number of the drusen found in the fundus photographs (FIG. 12): the drusen were gradually increased in the control group but not in the mice administered with Compound 32
[2]; young CCR2 deficient mice, drinking water containing 0.385 mg/ml from age of two months, photographs at age 3.5, 6, and 9 months
  drusen in fundus photographs (FIGS. 9 to 11): the drusen did not increase
